Source: the NIST ThermoML archive (doi:10.1021/je0500734)

Assays:
[1] = 101.33 kPa, Liquid; for speed of sound: acoustic time of flight gauge
[2] = xn = mol fraction of the nth substance listed; conditions: 101.33 kPa, Liquid; for speed of sound: acoustic time of flight gauge

[2H]C([2H])([2H])[N+](=O)[O-] [deuteronitromethane]
[1]
Conditions	kinematic viscosity [m2/s]	mass density [kg/m3]	speed of sound [m/s]	viscosity [mPa·s]
293.15 K	6.05e-07	1194.74	1291.1	–
295.15 K	5.81e-07	1190.43	1283.2	–
298.15 K	5.7e-07	1187.71	1271.3	–
300.15 K	5.49e-07	1184.73	1263.3	–
303.15 K	5.26e-07	1181.86	1251.4	–
303.5 K	6.27e-07	1180.03	–	0.6274
305.15 K	5.13e-07	1178.3	1243.5	–
307.5 K	5.82e-07	1172.08	–	0.5819
308.15 K	4.92e-07	1173.28	1231.6	–

[2H]C([2H])([2H])[N+](=O)[O-] [deuteronitromethane] + CCCCCO
[2]
Conditions	mass density, 303.5 K [kg/m3]	mass density, 307.5 K [kg/m3]	viscosity, 303.5 K [mPa·s]	viscosity, 307.5 K [mPa·s]
x1 = 0.08	823.07	819.05	–	–
x1 = 0.103	–	–	2.46	2.158
x1 = 0.178	843.08	838.92	–	–
x1 = 0.206	–	–	2.16	1.82
x1 = 0.245	858.21	853.8	–	–
x1 = 0.302	–	–	1.796	1.517
x1 = 0.351	883.03	878.4	–	–
x1 = 0.401	896.26	891.53	–	–
x1 = 0.418	–	–	1.447	1.251
x1 = 0.49	922.6	917.6	–	–
x1 = 0.502	–	–	1.24	1.077
x1 = 0.598	–	–	1.069	0.9159
x1 = 0.615	966.2	960.5	1.033	0.8939
x1 = 0.644	–	–	1.026	0.8578
x1 = 0.669	988.3	982.16	–	–
x1 = 0.749	1024.62	1018.46	–	–
x1 = 0.758	–	–	0.7821	0.7064
x1 = 0.801	–	–	0.7859	0.6878
x1 = 0.86	1084.42	1077.9	–	–
x1 = 0.904	–	–	0.6496	0.5971
x1 = 0.959	1149.88	1142.39	–	–
x1 = 1	1180.03	1172.08	0.6274	0.5819

C[N+](=O)[O-] [nitromethane]
[1]
Conditions	kinematic viscosity [m2/s]	mass density [kg/m3]	speed of sound [m/s]	viscosity [mPa·s]
293.15 K	6.01e-07	1137.21	1337.6	–
295.15 K	5.77e-07	1133.14	1329.5	–
298.15 K	5.62e-07	1130.42	1317.4	–
300.15 K	5.47e-07	1127.55	1309.4	–
301.15 K	–	1126.24	1305.3	0.6091
301.3 K	–	1126.04	–	0.6074
303.15 K	5.25e-07	1123.49	1297.3	–
305.15 K	5.1e-07	1120.82	1289.2	–
306.15 K	–	1119.36	1285.2	0.5636
306.3 K	–	1119.15	–	0.5623
308.15 K	4.89e-07	1116.54	1277.1	–

C[N+](=O)[O-] [nitromethane] + CCCCCO
[2]
Conditions	mass density [kg/m3]	speed of sound [m/s]	viscosity [mPa·s]
301.15 K, x1 = 0.065	818.89	–	–
301.15 K, x1 = 0.099	–	1258.1	–
301.15 K, x1 = 0.113	–	–	2.379
301.15 K, x1 = 0.127	828.49	–	–
301.15 K, x1 = 0.186	838.83	–	–
301.15 K, x1 = 0.202	–	1252.1	–
301.15 K, x1 = 0.203	–	–	2.119
301.15 K, x1 = 0.26	852.95	–	–
301.15 K, x1 = 0.302	–	1248.3	–
301.15 K, x1 = 0.31	863.38	–	–
301.15 K, x1 = 0.314	–	–	1.743
301.15 K, x1 = 0.398	883.3	–	1.487
301.15 K, x1 = 0.401	–	1245.4	–
301.15 K, x1 = 0.469	–	–	1.231
301.15 K, x1 = 0.502	–	1242.7	–
301.15 K, x1 = 0.503	910.3	–	–
301.15 K, x1 = 0.516	–	–	1.111
301.15 K, x1 = 0.54	920.98	–	–
301.15 K, x1 = 0.616	944.27	–	–
301.15 K, x1 = 0.619	–	1243.9	–
301.15 K, x1 = 0.62	–	–	0.9425
301.15 K, x1 = 0.699	973.7	–	–
301.15 K, x1 = 0.701	–	1247	–
301.15 K, x1 = 0.752	–	–	0.7812
301.15 K, x1 = 0.753	994.05	–	–
301.15 K, x1 = 0.801	–	–	0.7348
301.15 K, x1 = 0.802	1016.76	1258.9	–
301.15 K, x1 = 0.824	–	–	0.679
301.15 K, x1 = 0.849	–	–	0.673
301.15 K, x1 = 0.902	–	1281.2	–
301.15 K, x1 = 0.911	1070.91	–	–
301.15 K, x1 = 0.934	–	–	0.6149
301.15 K, x1 = 1	1126.24	1305.3	0.6091
306.15 K, x1 = 0.065	815.14	–	–
306.15 K, x1 = 0.099	–	1240.6	–
306.15 K, x1 = 0.113	–	–	2.009
306.15 K, x1 = 0.127	824.47	–	–
306.15 K, x1 = 0.186	834.67	–	–
306.15 K, x1 = 0.202	–	1234.6	–
306.15 K, x1 = 0.203	–	–	1.744
306.15 K, x1 = 0.26	848.61	–	–
306.15 K, x1 = 0.302	–	1230.6	–
306.15 K, x1 = 0.31	858.74	–	–
306.15 K, x1 = 0.314	–	–	1.473
306.15 K, x1 = 0.398	878.5	–	1.282
306.15 K, x1 = 0.401	–	1227.7	–
306.15 K, x1 = 0.469	–	–	1.093
306.15 K, x1 = 0.502	–	1225.5	–
306.15 K, x1 = 0.503	905.13	–	–
306.15 K, x1 = 0.516	–	–	0.9447
306.15 K, x1 = 0.54	915.83	–	–
306.15 K, x1 = 0.616	939	–	–
306.15 K, x1 = 0.619	–	1226.6	–
306.15 K, x1 = 0.62	–	–	0.7854
306.15 K, x1 = 0.699	967.99	–	–
306.15 K, x1 = 0.701	–	1230.2	–
306.15 K, x1 = 0.752	–	–	0.6945
306.15 K, x1 = 0.753	987.94	–	–
306.15 K, x1 = 0.801	–	–	0.6634
306.15 K, x1 = 0.802	1010.21	1241.7	–
306.15 K, x1 = 0.824	–	–	0.6288
306.15 K, x1 = 0.849	–	–	0.6161
306.15 K, x1 = 0.902	–	1262.1	–
306.15 K, x1 = 0.911	1064.52	–	–
306.15 K, x1 = 0.934	–	–	0.5661
306.15 K, x1 = 1	1119.36	1285.2	0.5636

C[N+](=O)[O-] [nitromethane] + [2H]OCCCCC
[2], x1 = 1
Conditions	mass density [kg/m3]	viscosity [mPa·s]
301.3 K	1126.04	0.6074
306.3 K	1119.15	0.5623

[2H]OCCCCC [pentan-1-ol-d]
[1]
Conditions	mass density [kg/m3]	speed of sound [m/s]	viscosity [mPa·s]
293.15 K	821.69	1282.3	–
295.15 K	819.5	1273.7	–
298.15 K	818.04	1265.1	–
300.15 K	816.42	1258.3	–
301.3 K	815.63	–	3.118
303.15 K	814.24	1248.5	–
305.15 K	813.1	1241.1	–
306.3 K	811.88	–	2.685
308.15 K	810.47	1230.8	–

[1], Capillary tube (Ostwald / Ubbelohde) method
Conditions	kinematic viscosity [m2/s]
293.15 K	4.99e-06
295.15 K	4.458e-06
298.15 K	4.238e-06
300.15 K	3.969e-06
303.15 K	3.685e-06
305.15 K	3.456e-06
308.15 K	3.148e-06

[2H]OCCCCC [pentan-1-ol-d] + C[N+](=O)[O-]
[2]
Conditions	mass density, 301.3 K [kg/m3]	mass density, 306.3 K [kg/m3]	viscosity, 301.3 K [mPa·s]	viscosity, 306.3 K [mPa·s]
x2 = 0	815.63	811.88	3.118	2.685
x2 = 0.07	825.73	821.85	–	–
x2 = 0.106	–	–	2.465	2.186
x2 = 0.154	839.37	835.21	–	–
x2 = 0.231	852.09	847.81	–	–
x2 = 0.245	–	–	1.937	1.678
x2 = 0.298	862.5	858.1	–	–
x2 = 0.385	879.49	873.8	–	–
x2 = 0.386	–	–	1.497	1.319
x2 = 0.503	906.93	904.01	–	–
x2 = 0.508	–	–	1.161	1.066
x2 = 0.551	920.64	917.49	–	–
x2 = 0.555	–	–	1.097	0.9975
x2 = 0.623	–	–	1.004	0.8782
x2 = 0.651	954.06	950.15	–	–
x2 = 0.679	–	–	0.9207	0.7937
x2 = 0.718	–	–	0.8419	0.729
x2 = 0.74	989.43	983.56	–	–
x2 = 0.749	–	–	0.7878	0.6974
x2 = 0.774	–	–	0.7451	0.6734
x2 = 0.847	1037.27	1031.12	–	–
x2 = 0.946	1090.5	1083.88	–	–

CCCCCO [pentan-1-ol]
[1]
Conditions	mass density [kg/m3]	speed of sound [m/s]	viscosity [mPa·s]
293.15 K	815.09	1290.7	–
295.15 K	812.74	1282.1	–
298.15 K	811.4	1273.6	–
300.15 K	809.72	1266.7	–
301.15 K	808.96	1263.3	3.113
303.15 K	807.41	1256.4	–
303.5 K	807.33	–	2.997
305.15 K	805.78	1249.4	–
306.15 K	805.17	1246.2	2.686
307.5 K	803.76	–	2.57
308.15 K	803.71	1239.3	–

[1], Capillary tube (Ostwald / Ubbelohde) method
Conditions	kinematic viscosity [m2/s]
293.15 K	4.96e-06
295.15 K	4.444e-06
298.15 K	4.223e-06
300.15 K	3.942e-06
303.15 K	3.635e-06
305.15 K	3.45e-06
308.15 K	3.129e-06

CCCCCO [pentan-1-ol] + C[N+](=O)[O-]
[2], x2 = 0
Conditions	mass density [kg/m3]	speed of sound [m/s]	viscosity [mPa·s]
301.15 K	808.96	1263.3	3.113
306.15 K	805.17	1246.2	2.686

CCCCCO [pentan-1-ol] + [2H]C([2H])([2H])[N+](=O)[O-]
[2], x2 = 0
Conditions	mass density [kg/m3]	viscosity [mPa·s]
303.5 K	807.33	2.997
307.5 K	803.76	2.57
